Patent publication US20180333415A1, “THERAPEUTIC METHODS” (REGENTS OF THE UNIVERSITY OF MINNESOTA, priority 2017, published 2018)

How the values were obtained:
CYP2C8 = target: T1, CYP2C8 (Homo sapiens, UniProt P10632); assay: Inhibition of CYP2C8 supersome-mediated EET biosynthesis; format: biochemical; conditions: FIG. 2, read-out: IC50 for inhibition of EET synthesis
T1 sequence (P10632 1-490): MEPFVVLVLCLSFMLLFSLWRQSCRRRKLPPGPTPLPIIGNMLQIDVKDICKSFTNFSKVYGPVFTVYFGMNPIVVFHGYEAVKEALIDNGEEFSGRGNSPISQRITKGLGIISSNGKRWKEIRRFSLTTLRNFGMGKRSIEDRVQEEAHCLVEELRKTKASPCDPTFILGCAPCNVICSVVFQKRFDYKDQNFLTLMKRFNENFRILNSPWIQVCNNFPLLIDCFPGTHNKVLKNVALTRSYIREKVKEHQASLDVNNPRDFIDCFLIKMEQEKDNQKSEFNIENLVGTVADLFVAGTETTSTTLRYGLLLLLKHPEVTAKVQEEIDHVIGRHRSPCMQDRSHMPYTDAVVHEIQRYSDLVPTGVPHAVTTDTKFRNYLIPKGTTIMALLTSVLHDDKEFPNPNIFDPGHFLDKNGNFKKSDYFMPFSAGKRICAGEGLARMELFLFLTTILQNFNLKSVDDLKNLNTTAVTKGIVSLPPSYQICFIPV
Description: (§1) Poziotinib was purchased from a commercial source (Selleck Chem catalog number S7358). Assays were conducted using standard techniques that are known in the literature including those described in US Patent Publication U.S. 2015/0342909.
(§2) Poziotinib was tested for inhibition of proliferation of the MCF-7 (HER2 negative) cell line in complete media. The IC50 for inhibition of growth was determined to be approximately 3 μM (FIG. 1). Poziotinib was tested for inhibition of CYP2C8 supersome-mediated EET biosynthesis. The IC50 for inhibition of EET synthesis was determined to be approximately 10 μM (FIG. 2). Poziotinib was tested for inhibition of CYP3A4 supersome-mediated EET biosynthesis. The IC50 for inhibition of EET synthesis was determined to be approximately 10 µM (FIG. 2).

EGFR type I kinase = EGFR type I kinase (Homo sapiens, UniProt P00533); conditions: as described in WO2008/150118; cited from earlier work
EGFR type I kinase, sequence (P00533 25-1210): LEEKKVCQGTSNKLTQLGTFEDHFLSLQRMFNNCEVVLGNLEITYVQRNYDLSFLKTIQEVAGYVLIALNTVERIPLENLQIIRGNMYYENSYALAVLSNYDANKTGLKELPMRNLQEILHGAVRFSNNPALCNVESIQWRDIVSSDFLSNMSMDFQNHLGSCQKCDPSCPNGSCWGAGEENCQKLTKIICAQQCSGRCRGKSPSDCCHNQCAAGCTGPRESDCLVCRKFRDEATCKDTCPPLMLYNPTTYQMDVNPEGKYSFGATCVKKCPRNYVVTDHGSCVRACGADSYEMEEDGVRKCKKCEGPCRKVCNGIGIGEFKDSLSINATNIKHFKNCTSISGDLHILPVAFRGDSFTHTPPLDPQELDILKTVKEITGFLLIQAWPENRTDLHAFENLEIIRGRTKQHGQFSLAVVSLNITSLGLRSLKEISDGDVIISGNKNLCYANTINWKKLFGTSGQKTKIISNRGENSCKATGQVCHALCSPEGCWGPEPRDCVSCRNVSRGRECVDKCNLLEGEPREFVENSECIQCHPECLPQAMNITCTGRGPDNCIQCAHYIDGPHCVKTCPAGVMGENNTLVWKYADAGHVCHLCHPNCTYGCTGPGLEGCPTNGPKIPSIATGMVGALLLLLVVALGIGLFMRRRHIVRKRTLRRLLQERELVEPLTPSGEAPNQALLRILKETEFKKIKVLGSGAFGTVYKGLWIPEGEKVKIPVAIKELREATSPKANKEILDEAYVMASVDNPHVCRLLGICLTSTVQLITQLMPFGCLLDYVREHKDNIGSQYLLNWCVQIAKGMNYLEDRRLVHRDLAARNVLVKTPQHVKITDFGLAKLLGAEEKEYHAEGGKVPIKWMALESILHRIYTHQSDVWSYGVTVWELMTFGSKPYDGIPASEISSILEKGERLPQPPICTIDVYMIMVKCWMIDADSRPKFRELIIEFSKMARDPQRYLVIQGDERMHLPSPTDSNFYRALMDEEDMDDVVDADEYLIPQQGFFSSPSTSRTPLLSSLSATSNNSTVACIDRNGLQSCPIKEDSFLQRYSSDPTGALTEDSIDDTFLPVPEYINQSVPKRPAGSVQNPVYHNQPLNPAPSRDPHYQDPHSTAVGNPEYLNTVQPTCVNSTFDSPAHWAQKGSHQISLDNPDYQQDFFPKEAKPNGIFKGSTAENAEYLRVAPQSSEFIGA

[1] = test system: MCF-7 (HER2 negative) cell line; assay: Inhibition of proliferation of MCF-7 cell line in complete media; format: cell-based; conditions: Homo sapiens, MCF7, FIG. 1, read-out: IC50 for inhibition of growth
Description: as §1, §2

[2] = test system: various cancer cell lines including colon/rectal, skin, lung and the breast cancer cell line SK-BR3; conditions: lung and SK-BR3 (overexpresses HER2) cell lines, WO2008/150118; cited from earlier work
MCF7 = assay: Measurement of OCR and ECAR (XF Extracellular Flux Analyzer); format: cell-based; conditions: MCF7, poziotinib 40 and 80 uM, endpoint A+270 minutes; P=0.0286 (40 uM), P=0.0001 (80 uM); normalized to 6th measurement DMSO control, n=5, FIG. 4
Description: Cells were maintained in growth medium consisting of 10% FBS at 37° C. with 5% CO2 and seeded at 30,000 cells per well in XF24-well cell culture microplates (Seahorse Bioscience, North Billirica, Ma.). Concentrated stocks of poziotinib were prepared in DMSO. Poziotinib was diluted to 10× working concentration in XF assay medium (a non-buffered medium including 2 mM L-glutamine but no sodium bicarbonate (buffering agent), glucose, or sodium pyruvate). Assays were performed in the XF Extracellular Flux Analyzer (Seahorse Bioscience), which measures uptake and excretion of metabolic end products in real time. Oxygen consumption rate (OCR) and extracellular acidification rate (ECAR) were measured using an XF Assay Kit. OCR is reported in pmoles/minute and ECAR in mpH/minute. Before analysis, the cells were switched from culture medium to XF assay medium. After baseline measurements, 75 μl of poziotinib prepared in assay medium was injected into each well to reach final working concentrations. After addition of poziotinib, OCR and ECAR were measured at 18-minute intervals. There were 5 replicates performed for each data point.
OCR was reduced by poziotinib vs. DMSO and was significant at the endpoint of A+270 minutes. […] Results are normalized to the 6th measurement DMSO control and expressed as mean ±S.D. (n=5) (FIG. 4).

CYP3A4 = CYP3A4 (Homo sapiens, UniProt P08684); assay: Inhibition of CYP3A4 supersome-mediated EET biosynthesis; format: biochemical; conditions: CYP3A4 supersomes, read-out: IC50 for inhibition of EET synthesis
CYP3A4, sequence (P08684 whole entry): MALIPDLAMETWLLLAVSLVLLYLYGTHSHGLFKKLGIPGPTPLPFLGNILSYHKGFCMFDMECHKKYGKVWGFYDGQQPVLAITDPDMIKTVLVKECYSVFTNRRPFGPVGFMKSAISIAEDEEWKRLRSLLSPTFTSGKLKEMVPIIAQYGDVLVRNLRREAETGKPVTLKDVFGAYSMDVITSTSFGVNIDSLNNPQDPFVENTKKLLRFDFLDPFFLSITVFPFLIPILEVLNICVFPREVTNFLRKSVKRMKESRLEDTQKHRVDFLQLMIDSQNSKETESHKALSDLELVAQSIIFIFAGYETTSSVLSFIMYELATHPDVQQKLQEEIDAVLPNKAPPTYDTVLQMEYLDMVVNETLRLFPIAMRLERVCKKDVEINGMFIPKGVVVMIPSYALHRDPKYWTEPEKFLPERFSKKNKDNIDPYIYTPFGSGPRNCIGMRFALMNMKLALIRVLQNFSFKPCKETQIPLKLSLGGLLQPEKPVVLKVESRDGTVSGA
Description: as §1, §2

IC50 (CYP2C8): ~10 µM
IC50 [1]: ~3 µM
IC50 (CYP3A4): ~10 µM
SMILES: C=CC(=O)N1CCC(Oc2cc3c(Nc4ccc(Cl)c(Cl)c4F)ncnc3cc2OC)CC1 [Poziotinib, 1-(4-((4-((3,4-dichloro-2-fluorophenyl)amino)-7-methoxyquinazolin-6-yl)oxy)piperidin-1-yl)prop-2-en-1-one]
Inhibition of EGFR type I kinase (EGFR type I kinase): inhibit EGFR type I kinase
Inhibition of cell growth [2]: inhibit cell growth
Oxygen consumption rate (OCR) vs. DMSO (MCF7): reduced
